Tests used:
[1] = Population pharmacokinetic analysis of liraglutide (one-compartment model, NONMEM FOCE-I; plasma ELISA); format: in vivo, human; details: for Absorption rate constant KA / Apparent volume of distribution V/F: parameter fixed
Method: As the focus of the analysis was a comparison of different age populations, age was prespecified to be included initially as a categorical variable.
In trial 4180, Tanner staging (stages 2‐5) of adolescents was assessed by site staff trained in pubertal assessments. For females, assessments of breast and pubic hair development were made. For males, assessments of testicular volume (by orchidometer), penis development and pubic hair development were made. Prepubertal patients were not permitted in the trial.
The structural model was parameterized in terms of the following parameters: • ka (absorption rate constant) • CL/F (apparent clearance) • V/F (apparent volume of distribution)
The first‐order conditional estimation with interaction (FOCE‐I) method was used for the population pharmacokinetic analysis, implemented in the non‐linear mixed effects modelling (NONMEM) software.
An analysis of the influence of covariates on exposure was carried out including all tested covariates in one step, using a confirmatory approach,[32] and disregarding any interactions between age group and sex. Model development involved estimation of a base model without covariates and a full model including all predefined covariates. If any covariates without statistically significant effect could be excluded, the reduced model would be considered the final population pharmacokinetic model. The covariates were prespecified and based on earlier findings in phase 3 trials with adults as well as prior knowledge from smaller trials in children and adolescents.
Specific steady‐state exposures for individual participants were based on the full model, including all covariates, and derived from the subject‐specific post‐hoc CL/F estimates, the maintenance dose and the dose interval (24 hours): (6) Cavg=Dose/CL/F*24hours
The CIs for full model parameters were estimated using bootstrapping. For each investigated covariate, differences were considered relevant if the 90% CI of the estimated mean of the relative exposure fell outside the standard bioequivalence limits (0.80‐1.25).
Between‐subject variability was included for CL/F and V/F, assuming log‐normal distributions […]. Furthermore, CL/F and V/F were estimated using a full variance‐covariance matrix. No between‐subject variability was included for ka. Within‐subject variability (residual) was described by a proportional error model. Standard graphical quality analyses, including goodness‐of‐fit plots (Figure S1), were made during qualification of the pharmacokinetic model.

[2] = tested on: adolescents in trial 4180; set-up: species or system human; details: in vivo
Method: The analyses were conducted using response data at week 20 (phase 2 trial 1807), week 50 (phase 3a trial 1922) or week 56 (phase 3a trials 4180 and 1839) to align with the original analysis in adults. The appropriateness of using different trial lengths for the historical adult trials was evaluated by graphically exploring the weight loss longitudinally. This was deemed appropriate as the maximal effect on weight reduction was reached after 20 weeks of treatment and remained stable thereafter for the trials of longer duration. […] The two age groups differed in the placebo group response, with lower mean responses in adolescents; this difference was consistent across the exposure range as well. […] However, the effect of age group on the maximal effect in the model (Emax) was not significant in these analyses. […] Approximately 64% of the adolescents in the exposure‐response analysis grew more than 0.5 cm during the trial. Of these, some received liraglutide and some received placebo.

[3] = tested on: pubertal adolescents with obesity; details: 56-week trial, liraglutide in addition to lifestyle therapy; 95% CI -0.37, -0.08; P = 0.002; cited from earlier work
[4] = base pharmacokinetic model without covariates

Absorption rate constant KA [1, 4]: 0.0804 h⁻¹
Apparent volume of distribution V/F [1, 4]: 13.1 L
Absorption rate constant KA ([1]; final (full covariate) pharmacokinetic model, trials 4180, 3967, 3630, 4181, children, adolescents and adults with obesity, N = 176): 0.0813 h⁻¹
Apparent volume of distribution V/F ([1]; final pharmacokinetic model, reference subject adult female, 100 kg): 13.8 L
Average growth (height) during the trial [2]: 1.4 cm
SMILES: CCCCCCCCCCCCCCCC(=O)N[C@@H](CCC(=O)NCCCC[C@H](NC(=O)[C@H](C)NC(=O)[C@H](C)NC(=O)[C@H](CCC(N)=O)NC(=O)CNC(=O)[C@H](CCC(=O)O)NC(=O)[C@H](CC(C)C)NC(=O)[C@H](Cc1ccc(O)cc1)NC(=O)[C@H](CO)NC(=O)[C@H](CO)NC(=O)[C@@H](NC(=O)[C@H](CC(=O)O)NC(=O)[C@H](CO)NC(=O)[C@@H](NC(=O)[C@H](Cc1ccccc1)NC(=O)[C@@H](NC(=O)CNC(=O)[C@H](CCC(=O)O)NC(=O)[C@H](C)NC(=O)[C@@H](N)Cc1cnc[nH]1)[C@@H](C)O)[C@@H](C)O)C(C)C)C(=O)N[C@@H](CCC(=O)O)C(=O)N[C@@H](Cc1ccccc1)C(=O)N[C@H](C(=O)N[C@@H](C)C(=O)N[C@@H](Cc1c[nH]c2ccccc12)C(=O)N[C@@H](CC(C)C)C(=O)N[C@H](C(=O)N[C@@H](CCCNC(=N)N)C(=O)NCC(=O)N[C@@H](CCCNC(=N)N)C(=O)NCC(=O)O)C(C)C)[C@@H](C)CC)C(=O)O [liraglutide]
Body weight exponent on V/F (V-BW) ([1]; final pharmacokinetic model): 0.587
BMI standard-deviation score (SDS), estimated treatment difference compared with placebo [3]: −0.22

From article PMC8519033 (Pediatric Obesity, 2021)
